As usually defined, the IC50 is the concentration needed to halve the response being measured.

Structures are written as SMILES.

Among the data in patent US7750003B2, “Compounds-943” (AstraZeneca AB, priority 2006, dated 2010) are IC50 values, retold here.

recombinant mTOR (FLAG-tagged, residues 1362-2549), sequence (P42345 1362-2549): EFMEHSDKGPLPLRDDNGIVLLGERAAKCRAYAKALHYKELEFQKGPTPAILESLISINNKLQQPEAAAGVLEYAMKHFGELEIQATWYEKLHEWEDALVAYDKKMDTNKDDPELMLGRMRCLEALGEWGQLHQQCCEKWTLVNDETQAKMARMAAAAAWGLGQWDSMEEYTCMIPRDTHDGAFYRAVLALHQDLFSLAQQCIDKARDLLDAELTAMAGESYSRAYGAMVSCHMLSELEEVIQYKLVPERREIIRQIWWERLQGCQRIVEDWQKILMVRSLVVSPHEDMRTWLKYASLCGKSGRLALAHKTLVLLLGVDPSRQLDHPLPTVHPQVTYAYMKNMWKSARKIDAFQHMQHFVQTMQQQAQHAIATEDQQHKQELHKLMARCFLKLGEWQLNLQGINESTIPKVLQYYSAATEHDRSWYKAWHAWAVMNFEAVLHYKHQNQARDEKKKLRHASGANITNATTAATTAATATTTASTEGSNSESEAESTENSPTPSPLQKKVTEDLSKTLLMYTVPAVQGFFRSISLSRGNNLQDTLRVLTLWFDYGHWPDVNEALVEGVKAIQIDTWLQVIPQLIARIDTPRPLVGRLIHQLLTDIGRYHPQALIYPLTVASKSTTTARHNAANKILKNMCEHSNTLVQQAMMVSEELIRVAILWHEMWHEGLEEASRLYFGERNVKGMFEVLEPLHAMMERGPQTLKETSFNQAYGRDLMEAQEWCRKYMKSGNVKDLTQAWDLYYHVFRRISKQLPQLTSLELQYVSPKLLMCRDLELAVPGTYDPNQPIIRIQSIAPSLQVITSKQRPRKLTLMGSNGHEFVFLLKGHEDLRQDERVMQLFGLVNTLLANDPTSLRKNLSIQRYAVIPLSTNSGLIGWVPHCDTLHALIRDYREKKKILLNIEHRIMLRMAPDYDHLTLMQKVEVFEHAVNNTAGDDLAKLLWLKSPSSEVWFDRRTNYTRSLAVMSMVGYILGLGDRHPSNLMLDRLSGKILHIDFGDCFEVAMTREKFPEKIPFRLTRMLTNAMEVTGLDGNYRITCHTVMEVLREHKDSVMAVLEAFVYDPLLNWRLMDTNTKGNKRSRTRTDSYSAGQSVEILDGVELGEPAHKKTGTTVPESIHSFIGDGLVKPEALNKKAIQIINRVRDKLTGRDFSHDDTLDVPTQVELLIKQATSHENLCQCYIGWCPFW

The assay deals with recombinant mTOR (FLAG-tagged, residues 1362-2549) (Homo sapiens, UniProt P42345). Description: In vitro mTOR kinase assay (Test (a), AlphaScreen). The conditions noted are these: ATP 20 μM, read-out: Test (a): IC50 versus mTOR kinase. It counts as biochemical. In short, it runs like this:
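AlphaScreen read-out: a phospho-T389 p70 S6K antibody on acceptor beads captures the phosphorylated biotin-peptide on donor beads, with signal loss indicating inhibition.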
For orientation: Alpha assays give light when donor and acceptor beads are brought close together.
Take `CNC(=O)Nc1ncc(-c2nc(N3CCOC[C@@H]3C)cc(C(C)(C)S(C)(=O)=O)n2)cn1` [Example 24bh, 3-methyl-1-[5-[4-[(3S)-3-methylmorpholin-4-yl]-6-(2-methylsulfonylpropan-2-yl)pyrimidin-2-yl]pyrimidin-2-yl]urea]: the IC50 amounted to 12 nM.

For `C[C@H]1COCCN1c1cc(C(C)(C)S(C)(=O)=O)nc(-c2ccc(NC(=O)NCc3cnn(C)c3)nc2)n1` [Example 24bi, 1-[5-[4-[(3S)-3-methylmorpholin-4-yl]-6-(2-methylsulfonylpropan-2-yl)pyrimidin-2-yl]pyridin-2-yl]-3-[(1-methylpyrazol-4-yl)methyl]urea], the IC50 is 430 nM.

For `C[C@H]1COCCN1c1cc(C(C)(C)S(C)(=O)=O)nc(-c2ccc(NC(=O)NCCO)cc2)n1` [Example 24bj, 3-(2-hydroxyethyl)-1-[4-[4-[(3S)-3-methylmorpholin-4-yl]-6-(2-methylsulfonylpropan-2-yl)pyrimidin-2-yl]phenyl]urea], the IC50 was found to be 51 nM.

As to `Cc1cnc(CNC(=O)Nc2ccc(-c3nc(CS(C)(=O)=O)cc(N4CCOC[C@@H]4C)n3)cc2)cn1` [Example 24c, 3-[4-[4-[(3S)-3-methylmorpholin-4-yl]-6-(methylsulfonylmethyl)pyrimidin-2-yl]phenyl]-1-[(5-methylpyrazin-2-yl)methyl]urea], the IC50 is 560 nM.

For `C[C@H]1COCCN1c1cc(CS(C)(=O)=O)nc(-c2ccc(NC(=O)NCc3ccccn3)cc2)n1` [Example 24d, 1-[4-[4-[(3S)-3-methylmorpholin-4-yl]-6-(methylsulfonylmethyl)pyrimidin-2-yl]phenyl]-3-(pyridin-2-ylmethyl)urea], the IC50 amounted to 4400 nM.

`C[C@H]1COCCN1c1cc(CS(C)(=O)=O)nc(-c2ccc(NC(=O)NCc3ccncc3)cc2)n1` [Example 24e, 1-[4-[4-[(3S)-3-methylmorpholin-4-yl]-6-(methylsulfonylmethyl)pyrimidin-2-yl]phenyl]-3-(pyridin-4-ylmethyl)urea]: the IC50 is 810 nM.

With `C[C@H]1COCCN1c1cc(CS(C)(=O)=O)nc(-c2ccc(NC(=O)NCc3cnn(C)c3)cc2)n1` [Example 24g, 1-[4-[4-[(3S)-3-methylmorpholin-4-yl]-6-(methylsulfonylmethyl)pyrimidin-2-yl]phenyl]-3-[(1-methylpyrazol-4-yl)methyl]urea], the IC50 came out at 310 nM.

As for `Cc1cc(CNC(=O)Nc2ccc(-c3nc(CS(C)(=O)=O)cc(N4CCOC[C@@H]4C)n3)cc2)no1` [Example 24h, 3-[4-[4-[(3S)-3-methylmorpholin-4-yl]-6-(methylsulfonylmethyl)pyrimidin-2-yl]phenyl]-1-[(5-methyl-1,2-oxazol-3-yl)methyl]urea], the IC50 stood at 4400 nM.

Consider `C[C@H]1COCCN1c1cc(CS(C)(=O)=O)nc(-c2ccc(NC(=O)NCc3cccc(N(C)C)c3)cc2)n1` [Example 24i, 3-[(3-dimethylaminophenyl)methyl]-1-[4-[4-[(3S)-3-methylmorpholin-4-yl]-6-(methylsulfonylmethyl)pyrimidin-2-yl]phenyl]urea], for which the IC50 stood at 330 nM.

On to `C[C@H]1COCCN1c1cc(CS(C)(=O)=O)nc(-c2ccc(NC(=O)NCc3cncs3)cc2)n1` [Example 24j, 1-[4-[4-[(3S)-3-methylmorpholin-4-yl]-6-(methylsulfonylmethyl)pyrimidin-2-yl]phenyl]-3-(1,3-thiazol-5-ylmethyl)urea], for which the IC50 worked out at 220 nM.

For `CNC(=O)Nc1ccn(-c2nc(CS(C)(=O)=O)cc(N3CCOC[C@@H]3C)n2)n1` [Example 24k, 3-methyl-1-[1-[4-[(3S)-3-methylmorpholin-4-yl]-6-(methylsulfonylmethyl)pyrimidin-2-yl]pyrazol-3-yl]urea], the IC50 came out at 180 nM.

On to `CCNC(=O)Nc1ccn(-c2nc(CS(C)(=O)=O)cc(N3CCOC[C@@H]3C)n2)n1` [Example 24l, 1-ethyl-3-[1-[4-[(3S)-3-methylmorpholin-4-yl]-6-(methylsulfonylmethyl)pyrimidin-2-yl]pyrazol-3-yl]urea], for which the IC50 was determined as 840 nM.

On to `C[C@H]1COCCN1c1cc(CS(C)(=O)=O)nc(-n2ccc(NC(=O)NC3CC3)n2)n1` [Example 24m, 3-cyclopropyl-1-[1-[4-[(3S)-3-methylmorpholin-4-yl]-6-(methylsulfonylmethyl)pyrimidin-2-yl]pyrazol-3-yl]urea], for which the IC50 was 650 nM.

Take `CNC(=O)NC1CCN(c2nc(N3CCOC[C@@H]3C)cc(C(C)(C)S(C)(=O)=O)n2)CC1` [Example 24n, 3-methyl-1-[1-[4-[(3S)-3-methylmorpholin-4-yl]-6-(2-methylsulfonylpropan-2-yl)pyrimidin-2-yl]-4-piperidyl]urea]: the IC50 came out at 3200 nM.

With `CCNC(=O)NC1CCN(c2nc(N3CCOC[C@@H]3C)cc(C(C)(C)S(C)(=O)=O)n2)CC1` [Example 24o, 1-ethyl-3-[1-[4-[(3S)-3-methylmorpholin-4-yl]-6-(2-methylsulfonylpropan-2-yl)pyrimidin-2-yl]-4-piperidyl]urea], the IC50 is 3400 nM.

On to `C[C@H]1COCCN1c1cc(C(C)(C)S(C)(=O)=O)nc(N2CCC(NC(=O)NC3CC3)CC2)n1` [Example 24p, 3-cyclopropyl-1-[1-[4-[(3S)-3-methylmorpholin-4-yl]-6-(2-methylsulfonylpropan-2-yl)pyrimidin-2-yl]-4-piperidyl]urea], for which the IC50 stood at 890 nM.

On to `C[C@H]1COCCN1c1cc(C(C)(C)S(C)(=O)=O)nc(N2CCC(NC(=O)NCc3cnn(C)c3)CC2)n1` [Example 24q, 1-[1-[4-[(3S)-3-methylmorpholin-4-yl]-6-(2-methylsulfonylpropan-2-yl)pyrimidin-2-yl]-4-piperidyl]-3-[(1-methylpyrazol-4-yl)methyl]urea], for which the IC50 is 5800 nM.

Take `C[C@H]1COCCN1c1cc(CS(C)(=O)=O)nc(-c2ccc(NC(=O)NC3CC3)nc2)n1` [Example 24r, 3-cyclopropyl-1-[5-[4-[(3S)-3-methylmorpholin-4-yl]-6-(methylsulfonylmethyl)pyrimidin-2-yl]pyridin-2-yl]urea]: the IC50 was determined as 340 nM.

With `C[C@H]1COCCN1c1cc(C(C)(C)S(C)(=O)=O)nc(-c2ccc(NC(=O)Nc3ccon3)cc2)n1` [Example 24s, 1-[4-[4-[(3S)-3-methylmorpholin-4-yl]-6-(2-methylsulfonylpropan-2-yl)pyrimidin-2-yl]phenyl]-3-(1,2-oxazol-3-yl)urea], the IC50 was determined as 4.7 nM.

With `Cc1cc(NC(=O)Nc2ccc(-c3nc(N4CCOC[C@@H]4C)cc(C(C)(C)S(C)(=O)=O)n3)cc2)no1` [Example 24t, 3-[4-[4-[(3S)-3-methylmorpholin-4-yl]-6-(2-methylsulfonylpropan-2-yl)pyrimidin-2-yl]phenyl]-1-(5-methyl-1,2-oxazol-3-yl)urea], the IC50 turned out to be 12 nM.

In the case of `C[C@H]1COCCN1c1cc(C(C)(C)S(C)(=O)=O)nc(-c2ccc(NC(=O)Nc3ncccn3)cc2)n1` [Example 24u, 1-[4-[4-[(3S)-3-methylmorpholin-4-yl]-6-(2-methylsulfonylpropan-2-yl)pyrimidin-2-yl]phenyl]-3-pyrimidin-2-yl-urea], the IC50 was 120 nM.

With `C[C@H]1COCCN1c1cc(C(C)(C)S(C)(=O)=O)nc(-c2ccc(NC(=O)Nc3cc[nH]n3)cc2)n1` [Example 24v, 1-[4-[4-[(3S)-3-methylmorpholin-4-yl]-6-(2-methylsulfonylpropan-2-yl)pyrimidin-2-yl]phenyl]-3-(1H-pyrazol-3-yl)urea], the IC50 came to 55 nM.

As for `C[C@H]1COCCN1c1cc(C(C)(C)S(C)(=O)=O)nc(-c2ccc(NC(=O)Nc3ccccc3)cc2)n1` [Example 24w, 1-[4-[4-[(3S)-3-methylmorpholin-4-yl]-6-(2-methylsulfonylpropan-2-yl)pyrimidin-2-yl]phenyl]-3-phenyl-urea], the IC50 is 34 nM.

For `COc1ccc(NC(=O)Nc2ccc(-c3nc(N4CCOC[C@@H]4C)cc(C(C)(C)S(C)(=O)=O)n3)cc2)cn1` [Example 24x, 3-(6-methoxypyridin-3-yl)-1-[4-[4-[(3S)-3-methylmorpholin-4-yl]-6-(2-methylsulfonylpropan-2-yl)pyrimidin-2-yl]phenyl]urea], the IC50 was 100 nM.

`C[C@H]1COCCN1c1cc(C(C)(C)S(C)(=O)=O)nc(-c2ccc(NC(=O)Nc3ccc(F)cn3)cc2)n1` [Example 24y, 3-(5-fluoropyridin-2-yl)-1-[4-[4-[(3S)-3-methylmorpholin-4-yl]-6-(2-methylsulfonylpropan-2-yl)pyrimidin-2-yl]phenyl]urea]: the IC50 amounted to 2200 nM.

Regarding `C[C@H]1COCCN1c1cc(C(C)(C)S(C)(=O)=O)nc(-c2cnc(NC(=O)NCc3cnn(C)c3)nc2)n1` [Example 24z, 1-[5-[4-[(3S)-3-methylmorpholin-4-yl]-6-(2-methylsulfonylpropan-2-yl)pyrimidin-2-yl]pyrimidin-2-yl]-3-[(1-methylpyrazol-4-yl)methyl]urea], the IC50 was found to be 370 nM.

As to `C[C@H]1COCCN1c1cc(CS(C)(=O)=O)nc(-n2ccc(NC(=O)Nc3ccccc3)n2)n1` [Example 25, 1-[1-[4-[(3S)-3-Methylmorpholin-4-yl]-6-(methylsulfonylmethyl)pyrimidin-2-yl]pyrazol-3-yl]-3-phenyl-urea], the IC50 was 1900 nM.

Regarding `COc1ccc(NC(=O)Nc2ccn(-c3nc(CS(C)(=O)=O)cc(N4CCOC[C@@H]4C)n3)n2)cc1` [Example 25a, 3-(4-methoxyphenyl)-1-[1-[4-[(3S)-3-methylmorpholin-4-yl]-6-(methylsulfonylmethyl)pyrimidin-2-yl]pyrazol-3-yl]urea], the IC50 came out at 4400 nM.

As to `C[C@H]1COCCN1c1cc(CS(C)(=O)=O)nc(-n2ccc(NC(=O)Nc3ccc(F)cc3)n2)n1` [Example 25b, 3-(4-fluorophenyl)-1-[1-[4-[(3S)-3-methylmorpholin-4-yl]-6-(methylsulfonylmethyl)pyrimidin-2-yl]pyrazol-3-yl]urea], the IC50 is 4400 nM.

For `CNC(=O)CS(=O)(=O)Cc1cc(N2CCOC[C@@H]2C)nc(-c2ccc(NC(=O)NC)cc2)n1` [Example 26, N-Methyl-2-[[2-[4-(methylcarbamoylamino)phenyl]-6-[(3S)-3-methylmorpholin-4-yl]pyrimidin-4-yl]methylsulfonyl]acetamide], the IC50 was determined as 29 nM.
